Biological target: KRas G12D (Homo sapiens (Human), UniProt P01116, G12D)
Assay: KRas G12D Binding Assay (TR-FRET displacement of Cy5 labelled tracer)
Details: GDP-loaded KRAS G12D (amino acids 1:169), 60 minute incubation at 22° C.
Protocol: After a 60 minute incubation at 22° C., the reaction was measured using a PerkinElmer EnVision multimode plate reader via TR-FRET dual wavelength detection, and the percent of control (POC) calculated using a ratiometric emission factor. […] The POC values were fit to a 4-parameter logistic curve and the IC50 value was determined as the concentration where the curve crosses 50 POC.
ND stands for “not determined.”

Sequence of KRas G12D (P01116 other isoform, or with tags, fused parts or gaps G12D): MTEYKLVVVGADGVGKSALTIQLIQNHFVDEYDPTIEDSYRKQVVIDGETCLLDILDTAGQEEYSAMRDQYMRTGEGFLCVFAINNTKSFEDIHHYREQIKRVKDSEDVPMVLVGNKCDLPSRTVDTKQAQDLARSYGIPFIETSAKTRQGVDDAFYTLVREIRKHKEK

Structure (SMILES)	IC50
Fc1c(-c2cccc(Cl)c2Cl)ncc2c(N3C[C@H]4CC[C@@H](C3)N4)nc(OCC34CCCN3CCC4)nc12 [Example 277, 4-((1R,5S)-3,8-diazabicyclo[3.2.1]octan-3-yl)-7-(2,3-dichlorophenyl)-8-fluoro-2-((hexahydro-1H-pyrrolizin-7a-yl)methoxy)pyrido[4,3-d]pyrimidine]	35.2 nM
OCc1cccc2cccc(-c3ncc4c(N5C[C@H]6CC[C@@H](C5)N6)nc(OCC56CCCN5CCC6)nc4c3F)c12 [Example 238, (8-(4-((1R,5S)-3,8-diazabicyclo[3.2.1]octan-3-yl)-8-fluoro-2-((tetrahydro-1H-pyrrolizin-7a(5H)-yl)methoxy)pyrido[4,3-d]pyrimidin-7-yl)naphthalen-1-yl)methanol]	16.1 nM
Fc1c(-c2cccc(Cl)c2C2CC2)ncc2c(N3C[C@H]4CC[C@@H](C3)N4)nc(OCC34CCCN3CCC4)nc12 [Example 322, 4-((1R,5S)-3,8-diazabicyclo[3.2.1]octan-3-yl)-7-(3-chloro-2-cyclopropylphenyl)-8-fluoro-2-((tetrahydro-1H-pyrrolizin-7a(5H)-yl)methoxy)pyrido[4,3-d]pyrimidine]	4.9 nM
CC(C)(O)c1ccccc1-c1ncc2c(N3CC4CCC(C3)N4)nc(OC[C@@]34CCCN3C[C@H](F)C4)nc2c1F (stereo in doubt) [Example 402, 2-(2-(4-((1R,5S)-3,8-diazabicyclo[3.2.1]octan-3-yl)-8-fluoro-2-((2-fluorotetrahydro-1H-pyrrolizin-7a(5H)-yl)methoxy)pyrido[4,3-d]pyrimidin-7-yl)phenyl)propan-2-ol]	8020 nM
COC(c1ccc(O)cc1-c1ncc2c(N3CC4CCC(C3)N4)nc(OC[C@@]34CCCN3C[C@H](F)C4)nc2c1F)C(F)(F)F (stereo in doubt) [Example 390, 3-(4-((1R,5S)-3,8-diazabicyclo[3.2.1]octan-3-yl)-8-fluoro-2-((2-fluorotetrahydro-1H-pyrrolizin-7a(5H)-yl)methoxy)pyrido[4,3-d]pyrimidin-7-yl)-4-(2,2,2-trifluoro-1-methoxyethyl)phenol]	36.8 nM
CO[C@H]1CN2CCC[C@]2(COc2nc(N3CC4CCC(C3)N4)c3cnc(-c4cc(O)cc5cccc(F)c45)c(F)c3n2)C1 (stereo in doubt) [Example 406, 4-(4-((1R,5S)-3,8-diazabicyclo[3.2.1]octan-3-yl)-8-fluoro-2-((2-methoxytetrahydro-1H-pyrrolizin-7a(5H)-yl)methoxy)pyrido[4,3-d]pyrimidin-7-yl)-5-fluoronaphthalen-2-ol]	0.9 nM
Oc1cc(-c2ncc3c(N4C[C@H]5CC[C@@H](C4)N5)nc(OCCC(F)(F)F)nc3c2F)c2c(Cl)cccc2c1 [Example 393, 4-(4-((1R,5S)-3,8-diazabicyclo[3.2.1]octan-3-yl)-8-fluoro-2-(3,3,3-trifluoropropoxy)pyrido[4,3-d]pyrimidin-7-yl)-5-chloronaphthalen-2-ol]	76.3 nM
Cc1cccc(-c2ncc3c(N4C[C@H]5CC[C@@H](C4)N5)nc(OCC45CCCN4CCC5)nc3c2F)c1C [Example 275, 4-((1R,5S)-3,8-diazabicyclo[3.2.1]octan-3-yl)-7-(2,3-dimethylphenyl)-8-fluoro-2-((hexahydro-1H-pyrrolizin-7a-yl)methoxy)pyrido[4,3-d]pyrimidine]	53.8 nM
CCc1ccc(O)cc1-c1ncc2c(N3C[C@H]4CC[C@@H](C3)N4)nc(OCC34CCCN3CCC4)nc2c1F [Example 263, 3-(4-((1R,5S)-3,8-diazabicyclo[3.2.1]octan-3-yl)-8-fluoro-2-((hexahydro-1H-pyrrolizin-7a-yl)methoxy)pyrido[4,3-d]pyrimidin-7-yl)-4-ethylphenol]	1.5 nM
Fc1c(-c2cnccc2C(F)(F)F)ncc2c(N3CC4CCC(C3)N4)nc(OC[C@@]34CCCN3C[C@H](F)C4)nc12 (stereo in doubt) [Example 415, 4-((1R,5S)-3,8-diazabicyclo[3.2.1]octan-3-yl)-8-fluoro-2-((2-fluorotetrahydro-1H-pyrrolizin-7a(5H)-yl)methoxy)-7-(4-(trifluoromethyl)pyridin-3-yl)pyrido[4,3-d]pyrimidine]	2580 nM
OCCc1ccccc1-c1ncc2c(N3C[C@H]4CC[C@@H](C3)N4)nc(OCC34CCCN3CCC4)nc2c1F [Example 315, 2-(2-(4-((1R,5S)-3,8-diazabicyclo[3.2.1]octan-3-yl)-8-fluoro-2-((hexahydro-1H-pyrrolizin-7a-yl)methoxy)pyrido[4,3-d]pyrimidin-7-yl)phenyl)ethanol]	2540 nM
CC1(C)CN2CCCC2(COc2nc(N3CC4CCC(C3)N4)c3cnc(-c4cccc5cccc(Cl)c45)c(F)c3n2)C1 [Example 228, 4-((1R,5S)-3,8-diazabicyclo[3.2.1]octan-3-yl)-7-(8-chloronaphthalen-1-yl)-2-((2,2-dimethyltetrahydro-1H-pyrrolizin-7a(5H)-yl)methoxy)-8-fluoropyrido[4,3-d]pyrimidine bis-2,2,2-trifluoroacetate]	87.7 nM
C#Cc1cccc2cc(O)cc(-c3ncc4c(N5C[C@H]6CC[C@@H](C5)N6)ncnc4c3F)c12 [Example 244, 4-(4-((1R,5S)-3,8-diazabicyclo[3.2.1]octan-3-yl)-8-fluoropyrido[4,3-d]pyrimidin-7-yl)-5-ethynylnaphthalen-2-ol]	4.2 nM
Fc1c(-c2cccc3ccccc23)ncc2c(N3C[C@H]4CC[C@@H](C3)N4)nc(OCC34CCCN3CCC4)nc12 [Example 186, 4-((1R,5S)-3,8-diazabicyclo[3.2.1]octan-3-yl)-8-fluoro-7-(naphthalen-1-yl)-2-((tetrahydro-1H-pyrrolizin-7a(5H)-yl)methoxy)pyrido[4,3-d]pyrimidine]	29.2 nM
COCc1cccc2cccc(-c3ncc4c(N5C[C@H]6CC[C@@H](C5)N6)nc(OC[C@@]56CCCN5C[C@H](F)C6)nc4c3F)c12 [Example 423, 4-((1R,5S)-3,8-diazabicyclo[3.2.1]octan-3-yl)-8-fluoro-2-(((2R,7aS)-2-fluorohexahydro-1H-pyrrolizin-7a-yl)methoxy)-7-(8-(methoxymethyl)naphthalen-1-yl)pyrido[4,3-d]pyrimidine]	238 nM
Oc1cccc(OC(F)(F)F)c1-c1ncc2c(N3CC4CCC(C3)N4)nc(OC[C@@]34CCCN3C[C@H](F)C4)nc2c1F [Example 392, 2-(4-((1R,5S)-3,8-diazabicyclo[3.2.1]octan-3-yl)-8-fluoro-2-((2-fluorotetrahydro-1-H-pyrrolizin-7a(5H)-yl)methoxy)pyrido[4,3-d]pyrimidin-7-yl)-3-(trifluoromethoxy)phenol]	208 nM
Fc1c(-c2cccc3cccc(Cl)c23)ncc2c(N3C[C@H]4CC[C@@H](C3)N4)nc(N3CC4(CCN4)C3)nc12 [Example 130, 4-((1R,5S)-3,8-diazabicyclo[3.2.1]octan-3-yl)-7-(8-chloronaphthalen-1-yl)-8-fluoro-2-(1,6-diazaspiro[3.3]heptan-6-yl)pyrido[4,3-d]pyrimidine]	1650 nM
Fc1c(-c2cccc3cccc(OC(F)F)c23)ncc2c(N3C[C@H]4CC[C@@H](C3)N4)nc(OCC34CCCN3CCC4)nc12 [Example 346, 4-((1R,5S)-3,8-diazabicyclo[3.2.1]octan-3-yl)-7-(8-(difluoromethoxy)naphthalen-1-yl)-8-fluoro-2-((tetrahydro-1H-pyrrolizin-7a(5H)-yl)methoxy)pyrido[4,3-d]pyrimidine]	10.5 nM
CCc1ccccc1-c1ncc2c(N3C[C@H]4CC[C@@H](C3)N4)nc(OCC34CCCN3CCC4)nc2c1F [Example 295, 4-((1R,5S)-3,8-diazabicyclo[3.2.1]octan-3-yl)-7-(2-ethylphenyl)-8-fluoro-2-((hexahydro-1H-pyrrolizin-7a-yl)methoxy)pyrido[4,3-d]pyrimidine]	192 nM
CN1CC[C@@H](Oc2nc(N3C[C@H]4CC[C@@H](C3)N4)c3cnc(-c4cccc5cccc(Cl)c45)c(F)c3n2)C1 [Example 358, 4-((1R,5S)-3,8-diazabicyclo[3.2.1]octan-3-yl)-7-(8-chloronaphthalen-1-yl)-8-fluoro-2-(((R)-1-methylpyrrolidin-3-yl)oxy)pyrido[4,3-d]pyrimidine]	1980 nM
CCC#Cc1cccc2cccc(-c3ncc4c(N5C[C@H]6CC[C@@H](C5)N6)nc(OCC56CCCN5CCC6)nc4c3F)c12 [Example 242, 4-((1R,5S)-3,8-diazabicyclo[3.2.1]octan-3-yl)-7-(8-(but-1-yn-1-yl)naphthalen-1-yl)-8-fluoro-2-((tetrahydro-1H-pyrrolizin-7a(5H)-yl)methoxy)pyrido[4,3-d]pyrimidine]	82.2 nM
Fc1c(-c2ccccc2Cl)ncc2c(N3C[C@H]4CC[C@@H](C3)N4)nc(OCC34CCCN3CCC4)nc12 [Example 310, 4-((1R,5S)-3,8-diazabicyclo[3.2.1]octan-3-yl)-7-(2-chlorophenyl)-8-fluoro-2-((hexahydro-1H-pyrrolizin-7a-yl)methoxy)pyrido[4,3-d]pyrimidine]	559 nM
Cc1cc2sc(N)nc2c(-c2ncc3c(N4C[C@H]5CC[C@@H](C4)N5)nc(OCC45CCCN4CCC5)nc3c2F)c1C [Example 456, 4-(4-((1R,5S)-3,8-diazabicyclo[3.2.1]octan-3-yl)-8-fluoro-2-((hexahydro-1H-pyrrolizin-7a-yl)methoxy)pyrido[4,3-d]pyrimidin-7-yl)-5,6-dimethylbenzo[d]thiazol-2-amine]	966 nM
C[C@H]1C[C@@H]1c1ccccc1-c1ncc2c(N3C[C@H]4CC[C@@H](C3)N4)nc(OCC34CCCN3CCC4)nc2c1F [Example 289, 4-((1R,5S)-3,8-diazabicyclo[3.2.1]octan-3-yl)-8-fluoro-2-((hexahydro-1H-pyrrolizin-7a-yl)methoxy)-7-(2-((1S,2S)-2-methylcyclopropyl)phenyl)pyrido[4,3-d]pyrimidine]	218 nM
N=C(N)NCCCOc1nc(N2CC3CCC(C2)N3)c2cnc(-c3cccc4cccc(Cl)c34)c(F)c2n1 [Example 177, 1-[3-[7-(8-chloro-1-naphthyl)-4-(3,8-diazabicyclo[3.2.1]octan-3-yl)-8-fluoro-pyrido[4,3-d]pyrimidin-2-yl]oxypropyl]guanidine]	187 nM

Reference: patent US20230279025A1, “KRAS G12D INHIBITORS” (Mirati Therapeutics, Inc., priority 2020, published 2023)
